Here are results for 1 substance from patent publication US20150140085A1, “FORMULATIONS COMPRISING IBRUTINIB” (PRINCIPIA BIOPHARMA INC., priority 2012, published 2015).

In general, AUC refers to concentration integrated over time. Read a low AUC as less exposure. One may read the Cmax as the maximum level reached in the sampled fluid or tissue.

The conditions of series [1]: rats, reported; cited from earlier work.
Series [2] is described as follows: Determination of bioavailability, stomach (oral gavage) v. intraduodenal administration. The settings on record: 20 mg/kg in Captex 355, fed female rats; for AUC / Cmax: plasma. Format: in vivo, Sprague dawley rats.
Procedure: Fed female Sprague dawley rats, 225-250 g with surgically implanted intra-duodenal catheters were obtained commercially. Rats were dosed solutions of ibrutinib via bolus injection: oral gavage was done to measure exposure after oral dosing, or dosing via administration through the intra-duodenal catheter to measure exposure bypassing the stomach. Ibrutinib was dosed at 20 mg/kg at a dose volume of 2 ml/kg. Blood was withdrawn at time points out to 24 hours and Ibrutinib quantitated via LC/MS/MS to obtain plasma concentrations. PK parameters were calculated via commercially available software and measures of exposure were used to assess differences in dosing routes.

For the substance ibrutinib, in series [1], the oral bioavailability is reported as 22.8%. Also, in series [2] (ID (intra-duodenal catheter)), the “F (bioavailability)” value came to 100%, the AUC is 4943 ng·h/mL and the Cmax was determined as 884 ng/mL. Also, in series [2] (PO (oral gavage)), the “F (bioavailability)” value is 21%, the AUC amounted to 998 ng·h/mL and the peak concentration (Cmax) amounted to 243 ng/mL.
